Measurements as given in patent publication US9878986B2, “Compounds for selective histone deacetylase inhibitors, and pharmaceutical composition comprising the same” (CHONG KUN DANG PHARMACEUTICAL CORP., priority 2013, dated 2018).

What was measured:
HDAC 11 = molecular target: T1, HDAC 11 (Homo sapiens, UniProt Q96DB2); assay: HDAC panel by Reaction Biology Corp., HDAC 11; format: biochemical; settings: read-out: HDAC inhibitory activities, HDAC 11
T1 construct: Reaction Biology Corp
T1 sequence (Q96DB2 1-347): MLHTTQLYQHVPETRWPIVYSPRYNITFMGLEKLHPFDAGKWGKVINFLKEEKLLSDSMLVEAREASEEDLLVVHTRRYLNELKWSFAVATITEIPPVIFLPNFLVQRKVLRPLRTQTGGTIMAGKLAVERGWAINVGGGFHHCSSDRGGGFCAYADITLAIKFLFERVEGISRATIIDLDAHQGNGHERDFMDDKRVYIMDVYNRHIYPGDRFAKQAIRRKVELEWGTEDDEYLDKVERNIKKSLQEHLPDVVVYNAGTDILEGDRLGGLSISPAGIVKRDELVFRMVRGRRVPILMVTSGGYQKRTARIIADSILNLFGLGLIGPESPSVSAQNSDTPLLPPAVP
Text: (§1) The inhibitory activities of Compounds 255 and 374 on all HDACs were confirmed (by Reaction Biology Corp.).

[1] = system: histone acetylation (HDAC1) in RPMI8226 cells; assay: Acetylation of Histone H3 and Histone H4 in cells by Western blot; format: cell-based; settings: 24 hours
Method: To determine the selectivity for HDAC6 in cells, the acetylation levels of Tubulin, Histone H3 and Histone H4 depending on the concentration of compounds were measured by Western blot.
RPMI8226 (1.0×10^6 cells/well) cells were seeded on six-well plates and treated with drugs (Compounds 255 and 374) at each concentration. After 24 hours, the proteins were extracted with RIPA buffer and quantified by the Bradford method. 25 μg of protein was lysed in sample buffer, electrophoresed on a 4-12% gradient gel, and then transferred to nitrocellulose membranes for 50 minutes. Then transferred protein was blocked with 5% skim milk for 1 hour. Anti-acetyl H3 (1:2,000), anti-acetyl H4 (1:5,000), anti-acetyl tubulin (1:5,000), and anti-β-actin antibody (1:10,000) were added into 5% skim milk, and the membranes were immersed in the skim milk, reacted at 4° C. for 16 hours, and then washed three times for 10 minutes each with 1×TBS-T. Then, IgG-HRP antibody (1:5,000) was added into 5% skim milk, and then the membranes were immersed in the skim milk, reacted at room temperature for 40 minutes, and then washed three times for […] each with 1×TBS-T. Then, the acetylation levels were determined with a LAS 3000 using ECL solution. […]

HDAC 5 = molecular target: T2, HDAC 5 (Homo sapiens, UniProt Q9UQL6); assay: HDAC panel by Reaction Biology Corp., HDAC 5; format: biochemical; settings: read-out: HDAC inhibitory activities, HDAC 5
T2 construct: Reaction Biology Corp
Text: as §1

colitis models = assay: Colitis models (dextran sulfate sodium); format: in vivo, C57BL/6J mice; settings: intraperitoneally twice a day after 8 days from supply of DSS; disease-induced models lost to 17.5 to 18 g
Method: 3.0% dextran sulfate sodium (DSS: MP biomedicals) was dissolved in deionized water and supplied to 9-week-old C57BL/6J mice for 5 to 7 days and then water was normally supplied to the mice to induce colitis in animal models. The experimental animals were classified into a solvent control group and each group treated with Compound 254 and Compound 255 as test materials based on the body weight of the experimental animals. The test material was intraperitoneally injected twice a day after 8 days from the supply of DSS. The evaluation of the efficacy in colitis models was made by determining the degree to which the weight, lost due to the disease, was recovered to normal level, and the results are shown in FIG. 6.

RPMI 8226 cells = assay: Combination index for combination treatment with Velcade (MTT cell viability); format: cell-based
Method: RPMI 8226 cells were seeded in 96-well U-bottom plate at 3×10^5 cells/ml in 180 μl per well, and 20 μl of test material was added to the plate. The cells were incubated in a 37° C. humidified 5% CO2 incubator for 48 hours, and each 20 μl of 5 mg/ml 2-(4,5-dimethylthiazol-2-yl)-2,5-diphenyltetrazolium bromide (MTT) solution dissolved in PBS was added and incubated again for 4 hours. After the formation of formazan, the medium was completely removed, 200 μl of DMSO was added, and then the absorbance was measured using a microplate reader at 570 nm.
For the quantitative analysis of drug interaction between the novel urea compounds of the present invention and Velcade (BOZ) well known as a therapeutic agent for multiple myeloma, the combination index (CI) of cell fractions on cytotoxicity caused by the drugs was calculated based on the dose-response curve of single and combination treatments. For the analysis of the interaction between two drugs, the CI was measured using Compusyn software (Combosyn Inc.) according to the method of Chou and Talalay (CompuSyn by Ting-Chao Chou and Nick Martin, 2005). The CI is the dose ratio of two anticancer agents treated with the dose of two anticancers at the point representing the equivalent cytotoxic effects. CI<1, CI=1, and CI>1 are interpreted as synergism, additivity, and antagonism, respectively.

[2] = Compound 255 0.25 μM + BOZ (Velcade) 2.5 nM
[3] = Compound 255 0.25 μM + BOZ (Velcade) 5.0 nM
[4] = Compound 255 0.25 μM + BOZ (Velcade) 10.0 nM
[5] = Compound 255 0.5 μM + BOZ (Velcade) 2.5 nM
[6] = Compound 255 0.5 μM + BOZ (Velcade) 5.0 nM
[7] = Compound 255 0.5 μM + BOZ (Velcade) 10.0 nM
[8] = Compound 255 1.0 μM + BOZ (Velcade) 2.5 nM
[9] = Compound 255 1.0 μM + BOZ (Velcade) 5.0 nM
[10] = Compound 255 1.0 μM + BOZ (Velcade) 10.0 nM

T2 sequence (Q9UQL6 whole entry): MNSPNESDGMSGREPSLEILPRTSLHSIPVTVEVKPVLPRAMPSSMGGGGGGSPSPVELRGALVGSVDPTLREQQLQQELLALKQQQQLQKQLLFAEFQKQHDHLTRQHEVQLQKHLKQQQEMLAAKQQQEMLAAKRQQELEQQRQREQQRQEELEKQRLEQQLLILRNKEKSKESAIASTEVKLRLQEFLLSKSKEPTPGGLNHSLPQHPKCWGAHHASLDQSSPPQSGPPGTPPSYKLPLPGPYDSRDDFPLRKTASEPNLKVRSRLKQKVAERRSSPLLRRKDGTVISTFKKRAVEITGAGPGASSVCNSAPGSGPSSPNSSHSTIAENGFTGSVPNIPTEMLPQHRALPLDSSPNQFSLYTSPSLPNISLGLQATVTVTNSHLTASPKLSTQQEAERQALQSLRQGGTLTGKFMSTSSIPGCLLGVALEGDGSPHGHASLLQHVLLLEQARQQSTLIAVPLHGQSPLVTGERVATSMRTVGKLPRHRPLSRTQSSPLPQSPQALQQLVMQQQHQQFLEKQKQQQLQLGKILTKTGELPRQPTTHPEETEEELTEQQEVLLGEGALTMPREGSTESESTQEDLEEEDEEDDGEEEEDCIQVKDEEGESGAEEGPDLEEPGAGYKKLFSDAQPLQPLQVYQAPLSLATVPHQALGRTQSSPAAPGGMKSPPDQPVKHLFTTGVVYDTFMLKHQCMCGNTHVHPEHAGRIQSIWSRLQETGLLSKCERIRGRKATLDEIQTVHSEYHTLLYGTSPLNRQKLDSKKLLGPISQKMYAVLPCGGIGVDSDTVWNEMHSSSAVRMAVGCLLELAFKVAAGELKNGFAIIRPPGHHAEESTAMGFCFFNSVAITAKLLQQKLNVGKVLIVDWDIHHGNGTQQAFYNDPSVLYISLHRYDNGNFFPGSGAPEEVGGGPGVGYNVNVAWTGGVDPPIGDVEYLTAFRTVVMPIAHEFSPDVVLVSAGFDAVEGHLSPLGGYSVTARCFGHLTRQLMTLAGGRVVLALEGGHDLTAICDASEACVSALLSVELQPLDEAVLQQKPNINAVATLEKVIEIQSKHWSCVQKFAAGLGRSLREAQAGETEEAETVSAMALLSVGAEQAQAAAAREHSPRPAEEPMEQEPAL

Structure (SMILES): O=C(NO)c1ccc(CN(C(=O)N2CCOCC2)c2cccc(C(F)(F)F)c2)cc1 [Compound 374, N-(4-(hydroxycarbamoyl)benzyl)-N-(3-(trifluoromethyl)phenyl)morpholine-4-carboxamide]
- IC50 (HDAC 11): 8.42 µM
- concentration at which histone acetylation (HDAC1) was expressed [1]: 10 µM

Structure (SMILES): O=C(NO)c1ccc(CN(C(=O)N2CCOCC2)c2cccc(Br)c2)cc1 [Compound 255, N-(3-bromophenyl)-N-(4-(hydroxycarbamoyl)benzyl)morpholine-4-carboxamide]
- IC50 (HDAC 5): 8.27 µM
- IC50 (HDAC 11): 0.78 µM
- concentration at which histone acetylation (HDAC1) was expressed [1]: 1 µM
- weight recovered to (colitis models): 19 to 19.5 g
- CI (1) (RPMI 8226 cells; [2]): 1.182
- CI (2) (RPMI 8226 cells; [2]): 1.034
- CI (3) (RPMI 8226 cells; [2]): 1.068
- CI (1) (RPMI 8226 cells; [3]): 0.560
- CI (2) (RPMI 8226 cells; [3]): 0.710
- CI (3) (RPMI 8226 cells; [3]): 0.737
- CI (1) (RPMI 8226 cells; [4]): 0.482
- CI (2) (RPMI 8226 cells; [4]): 0.309
- CI (3) (RPMI 8226 cells; [4]): 0.417
- CI (1) (RPMI 8226 cells; [5]): 1.120
- CI (2) (RPMI 8226 cells; [5]): 1.115
- CI (3) (RPMI 8226 cells; [5]): 1.087
- CI (1) (RPMI 8226 cells; [6]): 0.751
- CI (2) (RPMI 8226 cells; [6]): 0.789
- CI (3) (RPMI 8226 cells; [6]): 0.727
- CI (1) (RPMI 8226 cells; [7]): 0.491
- CI (2) (RPMI 8226 cells; [7]): 0.529
- CI (3) (RPMI 8226 cells; [7]): 0.428
- CI (1) (RPMI 8226 cells; [8]): 0.940
- CI (2) (RPMI 8226 cells; [8]): 1.146
- CI (3) (RPMI 8226 cells; [8]): 0.998
- CI (1) (RPMI 8226 cells; [9]): 0.469
- CI (2) (RPMI 8226 cells; [9]): 0.679
- CI (3) (RPMI 8226 cells; [9]): 0.475
- CI (1) (RPMI 8226 cells; [10]): 0.416
- CI (2) (RPMI 8226 cells; [10]): 0.518
- CI (3) (RPMI 8226 cells; [10]): 0.417
- combination effect with Velcade (BOZ) (RPMI 8226 cells; judged by the combination index): combination effect is excellent
